Reference: patent US20250108119A1, “NOVEL STEROID PAYLOADS, STEROID LINKERS, ADCs CONTAINING AND USE THEREOF” (IMMUNEXT, INC., priority 2021, published 2025)

Legend:
[1] = system: LPS stimulated human PBMCs; assay: LPS stimulated human PBMC, IL-1β and IL-6 ELISA; format: cell-based
In short: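 Human PBMC (1-2 healthy donors), 150,000 cells/well, treated with test agents at 1,000 nM down to 1 nM or 0.2 nM, in duplicate. LPS at 1 ng/ml added immediately after free payload or 4 h after conjugates; IL-1β and IL-6 in supernatants measured by ELISA.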

human PBMC = assay: Identification and quantification of released payload in human PBMC (MS); format: in vitro ADME; conditions: 4h, second study
Procedure: In all the following experiments, human PBMC, isolated from 1 healthy donor per study, were treated with exemplary anti-VISTA glucocorticoid conjugates according to the invention to allow identification and quantification of the released payload.
In the present experiments, after incubating PBMC with glucocorticoid (GC) antibody drug conjugates (ADC) for 4h, cells were harvested and assessed for both FKBP5 transcription induction via quantitative real time PCR (qPCR) as well as assessed via mass spectrometry (MS) for released payload identification and quantification.
Isolated PBMCs were resuspended in RPMI 1640 containing 10% human AB serum, 10 mM Hepes, 1× Penicillin/Streptomycin/L-Glutamine (assay media).
PBMCs from 1 donor were washed 2× in PBS, and then resuspended at 1×10^7/mL in media. […]
Remaining cells for each treatment were dived into aliquots representing 50 million cells per aliquot (for metabolite quantification only one aliquot per condition was generated). […]
Media was removed from each cell pellet with the media then set aside at −80C until it could be assessed for the concentration of effluxed payload. […]
Briefly, pre-chilled 70% ACN (extraction buffer) was added to the PBMC pellets for extraction. […] was injected onto the LCMS (Luna C18 (2) column, Thermo Scientific Q Exactive Hybrid Quadrupole Orbitrap) and resulting masses assessed. […]

C[C@]12C=CC(=O)C=C1CC[C@@H]1[C@@H]2[C@@H](O)C[C@@]2(C)[C@H]1C[C@H]1O[C@@H](c3ccc(CC4CC5(C4)CC(NC(=O)[C@H](CCC(=O)O)NC(=O)CNC(=O)CBr)C5)cc3)O[C@]12C(=O)CO (stereo partly drawn) [INX V, (S)-4-(2-(2-bromoacetamido)acetamido)-5-((6-(4-((6aR,6bS,7S,8aS,8bS,10R,11aR,12aS,12bS)-7-hydroxy-8b-(2-hydroxyacetyl)-6a,8a-dimethyl-4-oxo-2,4,6a,6b,7,8,8a,8b,11a,12,12a,12b-dodecahydro-1H-naphtho[2′,1′:4,5]indeno[1,2-d][1,3]dioxol-10-yl)benzyl)spiro[3.3]heptan-2-yl)amino)-5-oxopentanoic acid]
potency of conjugated linker payloads over INX J (conclusions) [1]: enhanced potency | released payload relative to INX P / INX231P (ng/ng) (human PBMC): 235 x
